The target in this assay is T1, Human CGRP1 Receptor (Homo sapiens, UniProt O60894+Q16602).
T1 construct: endogenous in cells; host or cells: SK-N-MC cells (membrane homogenate)
Kind of assay: CGRP Binding Assay ([125I]-CGRP radioligand displacement, SK-N-MC membrane homogenate). The settings on record: [125I]-CGRP displacement, SK-N-MC homogenate, room temperature 2 h; read-out: Human CGRP1 Receptor IC50. As for the experimental part: Tissue Culture. SK-N-MC cells were grown at 37° C. in 5% CO2 as a monolayer in medium consisting of MEM with Earle's salts and L-glutamine (Gibco) supplemented with 10% fetal bovine serum (Gibco).
Cell Pellets. […] The cells were transferred from plates to polypropylene tubes (16×100 mm) and homogenized using a polytron. Homogenates were centrifuged at 32,000×g for 30 min. The pellets were resuspended in cold hypotonic lysis buffer with 0.1% mammalian protease inhibitor cocktail (Sigma) and assayed for protein concentration. The SK-N-MC homogenate was then aliquoted and stored at −80° C. until needed.
Radioligand Binding Assay. The compounds of invention were solubilized and carried through serial dilutions using 100% DMSO. Aliquots from the compound serial dilutions were further diluted 25 fold into assay buffer (50 mM Tris-Cl pH 7.5, 5 mM MgCl2, 0.005% Triton X-100) and transferred (volume 50 μl) into 96 well assay plates. […] SK-N-MC pellets were thawed, diluted in assay buffer with fresh 0.1% mammalian protease inhibitor cocktail (Sigma), and homogenized again. SK-N-MC homogenate (5 μg/well) was added in a volume of 100 μl. The assay plates were then incubated at room temperature for 2 h. Assays were stopped by addition of excess cold wash buffer (20 mM Tris-Cl pH 7.5, 0.1% BSA) immediately followed by filtration over glass fiber filters (Whatman GF/B) previously soaked in 0.5% PEI. Non-specific binding was defined with 1 μM beta-CGRP. Protein bound radioactivity was determined using a gamma or scintillation counter.
Background: Displacement assays read how much labelled ligand stays bound in the presence of the test substance.

A value given as a limit tells only on which side of the number the result lay.

One may read the IC50 as the concentration needed to halve the response being measured.

T1 sequence (Q16602 23-461): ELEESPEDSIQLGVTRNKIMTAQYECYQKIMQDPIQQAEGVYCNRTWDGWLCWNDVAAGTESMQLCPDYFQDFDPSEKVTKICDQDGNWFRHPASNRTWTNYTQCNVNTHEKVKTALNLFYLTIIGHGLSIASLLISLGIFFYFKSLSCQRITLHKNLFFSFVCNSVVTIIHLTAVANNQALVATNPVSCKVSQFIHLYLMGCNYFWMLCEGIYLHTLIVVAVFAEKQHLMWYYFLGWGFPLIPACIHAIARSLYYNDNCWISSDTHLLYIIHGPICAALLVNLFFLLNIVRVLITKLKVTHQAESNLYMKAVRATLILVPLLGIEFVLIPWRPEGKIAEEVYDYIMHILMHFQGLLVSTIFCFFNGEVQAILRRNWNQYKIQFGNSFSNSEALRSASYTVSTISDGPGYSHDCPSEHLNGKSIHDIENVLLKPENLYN
T1 sequence (O60894 27-148): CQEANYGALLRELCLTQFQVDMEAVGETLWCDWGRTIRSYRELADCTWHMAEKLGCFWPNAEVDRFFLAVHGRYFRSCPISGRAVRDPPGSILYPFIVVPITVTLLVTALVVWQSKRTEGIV

For `Cc1cc(CC(CC(=O)N2CCC(N3Cc4ccccc4NC3=O)CC2)c2ccc(CO)cn2)cc2cn[nH]c12` (racemic) [Example 27, (±)-3-(1-(3-(5-(Hydroxymethyl)pyridin-2-yl)-4-(7-methyl-1H-indazol-5-yl)butanoyl)piperidin-4-yl)-3,4-dihydroquinazolin-2(1H)-one], the IC50 is < 10 nM.

Regarding `Cc1cc(CC(CC(=O)N2CCC(N3Cc4ccccc4NC3=O)CC2)c2ccc(C=O)cn2)cc2cn[nH]c12` (racemic) [Example 28, (±)-6-(1-(7-Methyl-1H-indazol-5-yl)-4-oxo-4-(4-(2-oxo-1,2-dihydroquinazolin-3(4H)-yl)piperidin-1-yl)butan-2-yl)nicotinaldehyde], the IC50 is < 10 nM.

Take `Cc1cc(CC(CC(=O)N2CCC(N3Cc4ccccc4NC3=O)CC2)c2ccc(CN3CCCCC3)cn2)cc2cn[nH]c12` (racemic) [Example 29, (±)-3-(1-(4-(7-Methyl-1H-indazol-5-yl)-3-(5-(piperidin-1-ylmethyl)pyridin-2-yl)butanoyl)piperidin-4-yl)-3,4-dihydroquinazolin-2(1H)-one]: the IC50 was < 10 nM.

Turning to `Cc1cc(CC(NC(=O)N2CCC(N3Cc4ccccc4NC3=O)CC2)c2cccc(Br)n2)cc2cn[nH]c12` (racemic) [Example 30, (±)-N-(1-(6-Bromopyridin-2-yl)-2-(7-methyl-1H-indazol-5-yl)ethyl)-4-(2-oxo-1,2-dihydroquinazolin-3(4H)-yl)piperidine-1-carboxamide], the IC50 was < 10 nM.

For `Cc1cc(CC(NC(=O)N2CCC(N3Cc4ccccc4NC3=O)CC2)c2ccccn2)cc2cn[nH]c12` (racemic) [Example 31, (±)-N-(2-(7-Methyl-1H-indazol-5-yl)-1-(pyridin-2-yl)ethyl)-4-(2-oxo-1,2-dihydroquinazolin-3(4H)-yl)piperidine-1-carboxamide], the IC50 was < 10 nM.

`Cc1cc(CC(NC(=O)N2CCC(N3Cc4ccccc4NC3=O)CC2)c2cc([N+](=O)[O-])ccn2)cc2cn[nH]c12` (racemic) [Example 32, (±)-N-(2-(7-Methyl-1H-indazol-5-yl)-1-(4-nitropyridin-2-yl)ethyl)-4-(2-oxo-1,2-dihydroquinazolin-3(4H)-yl)piperidine-1-carboxamide]: the IC50 was < 10 nM.

With `Cc1cc(CC(NC(=O)N2CCC(N3Cc4ccccc4NC3=O)CC2)c2cc(F)ccn2)cc2cn[nH]c12` (racemic) [Example 33, (±)-N-(1-(4-Fluoropyridin-2-yl)-2-(7-methyl-1H-indazol-5-yl)ethyl)-4-(2-oxo-1,2-dihydroquinazolin-3(4H)-yl)piperidine-1-carboxamide], the IC50 is < 10 nM.

`Cc1cc(CC(NC(=O)N2CCC(N3Cc4ccccc4NC3=O)CC2)c2ccc3ccccc3n2)cc2cn[nH]c12` (racemic) [Example 34, (±)-N-(2-(7-Methyl-1H-indazol-5-yl)-1-(quinolin-2-yl)ethyl)-4-(2-oxo-1,2-dihydroquinazolin-3(4H)-yl)piperidine-1-carboxamide]: the IC50 was < 10 nM.

As for `Cc1cc(CC(NC(=O)N2CCC(N3Cc4cccc(F)c4NC3=O)CC2)c2ccc3ccccc3n2)cc2cn[nH]c12` (racemic) [Example 35, (±)-4-(8-Fluoro-2-oxo-1,2-dihydroquinazolin-3(4H)-yl)-N-(2-(7-methyl-1H-indazol-5-yl)-1-(quinolin-2-yl)ethyl)piperidine-1-carboxamide], the IC50 was < 10 nM.

As for `Cc1cc(CC(NC(=O)N2CCC(N3Cc4ccccc4NC3=O)CC2)c2cccc(-c3ccccc3)n2)cc2cn[nH]c12` (racemic) [Example 37, (±)-N-(2-(7-Methyl-1H-indazol-5-yl)-1-(6-phenylpyridin-2-yl)ethyl)-4-(2-oxo-1,2-dihydroquinazolin-3(4H)-yl)piperidine-1-carboxamide], the IC50 lay in the range of 10 to 100 nM.

As to `Cc1cccc(C(Cc2cc(C)c3[nH]ncc3c2)NC(=O)N2CCC(N3Cc4ccccc4NC3=O)CC2)n1` (racemic) [Example 38, (±)-N-(2-(7-Methyl-1H-indazol-5-yl)-1-(6-methylpyridin-2-yl)ethyl)-4-(2-oxo-1,2-dihydroquinazolin-3(4H)-yl)piperidine-1-carboxamide], the half-inhibitory concentration (IC50) is < 10 nM.

In the case of `Cc1cc(CC(OC(=O)N2CCC(N3Cc4cccc(F)c4NC3=O)CC2)c2cccc(Br)n2)cc2cn[nH]c12` (racemic) [Example 39, (±)-1-(6-Bromopyridin-2-yl)-2-(7-methyl-1H-indazol-5-yl)ethyl 4-(8-fluoro-2-oxo-1,2-dihydroquinazolin-3(4H)-yl)piperidine-1-carboxylate], the 50% inhibitory concentration (IC50) was < 10 nM.

`Cc1cc(CC(OC(=O)N2CCC(N3Cc4ccccc4NC3=O)CC2)c2cccc(Br)n2)cc2cn[nH]c12` (racemic) [Example 40, (±)-1-(6-Bromopyridin-2-yl)-2-(7-methyl-1H-indazol-5-yl)ethyl 4-(2-oxo-1,2-dihydroquinazolin-3(4H)-yl)piperidine-1-carboxylate]: the IC50 was < 10 nM.

For the compound `Cc1cc(CC(OC(=O)N2CCC(N3Cc4ccccc4NC3=O)CC2)c2cccc(OC(C)(C)C)n2)cc2cn[nH]c12` (racemic) [Example 41, (±)-1-(6-tert-Butoxypyridin-2-yl)-2-(7-methyl-1H-indazol-5-yl)ethyl 4-(2-oxo-1,2-dihydroquinazolin-3(4H)-yl)piperidine-1-carboxylate], the half-inhibitory concentration (IC50) was in the range of 100 to 1000 nM.

As for `Cc1cc(CC(OC(=O)N2CCC(N3Cc4ccccc4NC3=O)CC2)c2cccc(=O)[nH]2)cc2cn[nH]c12` (racemic) [Example 42, (±)-2-(7-Methyl-1H-indazol-5-yl)-1-(6-oxo-1,6-dihydropyridin-2-yl)ethyl 4-(2-oxo-1,2-dihydroquinazolin-3(4H)-yl)piperidine-1-carboxylate], the IC50 fell in the range of 100 to 1000 nM.

For `Cc1cc(CC(OC(=O)N2CCC(N3Cc4cccc(F)c4NC3=O)CC2)c2cccc(CC(C)C)n2)cc2cn[nH]c12` (racemic) [Example 43, (±)-1-(6-Isobutylpyridin-2-yl)-2-(7-methyl-1H-indazol-5-yl)ethyl 4-(8-fluoro-2-oxo-1,2-dihydroquinazolin-3(4H)-yl)piperidine-1-carboxylate], the half-inhibitory concentration (IC50) was in the range of 10 to 100 nM.

As for `Cc1cc(CC(OC(=O)N2CCC(N3Cc4cccc(F)c4NC3=O)CC2)c2cccc(Cc3cc(F)cc(F)c3)n2)cc2cn[nH]c12` (racemic) [Example 44, (±)-1-(6-(3,5-Difluorobenzyl)pyridin-2-yl)-2-(7-methyl-1H-indazol-5-yl)ethyl 4-(8-fluoro-2-oxo-1,2-dihydroquinazolin-3(4H)-yl)piperidine-1-carboxylate], the IC50 is < 10 nM.

Consider `Cc1cc(CC(OC(=O)N2CCC(N3Cc4cccc(F)c4NC3=O)CC2)c2cccc(C#N)n2)cc2cn[nH]c12` (racemic) [Example 45, (±)-1-(6-Cyanopyridin-2-yl)-2-(7-methyl-1H-indazol-5-yl)ethyl 4-(8-fluoro-2-oxo-1,2-dihydroquinazolin-3(4H)-yl)piperidine-1-carboxylate], for which the IC50 is < 10 nM.

As to `Cc1cc(CC(OC(=O)N2CCC(N3Cc4ccccc4NC3=O)CC2)c2cc(CO)ccn2)cc2cn[nH]c12` (racemic) [Example 46, (±)-1-(4-(Hydroxymethyl)pyridin-2-yl)-2-(7-methyl-1H-indazol-5-yl)ethyl 4-(2-oxo-1,2-dihydroquinazolin-3(4H)-yl)piperidine-1-carboxylate], the IC50 is < 10 nM.

Turning to `Cc1cc(CC(OC(=O)N2CCC(N3Cc4ccccc4NC3=O)CC2)c2cc(C=O)ccn2)cc2cn[nH]c12` (racemic) [Example 47, (±)-1-(4-Formylpyridin-2-yl)-2-(7-methyl-1H-indazol-5-yl)ethyl 4-(2-oxo-1,2-dihydroquinazolin-3(4H)-yl)piperidine-1-carboxylate], the IC50 is < 10 nM.

As to `Cc1cc(CC(OC(=O)N2CCC(N3Cc4ccccc4NC3=O)CC2)c2cc(C(=O)O)ccn2)cc2cn[nH]c12` (racemic) [Example 48, (±)-2-(2-(7-Methyl-H-indazol-5-yl)-1-(4-(2-oxo-1,2-dihydroquinazolin-3(4H)-yl)piperidine-1-carbonyloxy)ethyl)isonicotinic acid], the IC50 lay in the range of 10 to 100 nM.

As to `Cc1cc(CC(OC(=O)N2CCC(N3Cc4ccccc4NC3=O)CC2)c2cc(C(=O)N3CCCCC3)ccn2)cc2cn[nH]c12` (racemic) [Example 49, (±)-2-(7-Methyl-1H-indazol-5-yl)-1-(4-(piperidine-1-carbonyl)pyridin-2-yl)ethyl 4-(2-oxo-1,2-dihydroquinazolin-3(4H)-yl)piperidine-1-carboxylate], the IC50 was < 10 nM.

With `Cc1cc(CC(NC(=O)N2CCC(N3Cc4ccccc4NC3=O)CC2)c2ncc[nH]2)cc2cn[nH]c12` (racemic) [Example 65, (±)-N-(1-(1H-Imidazol-2-yl)-2-(7-methyl-1H-indazol-5-yl)ethyl)-4-(2-oxo-1,2-dihydroquinazolin-3(4H)-yl)piperidine-1-carboxamide], the IC50 fell in the range of 10 to 100 nM.

In the case of `Cc1cc(CC(NC(=O)N2CCC(N3Cc4ccccc4NC3=O)CC2)c2nccn2C)cc2cn[nH]c12` (racemic) [Example 66, (±)-N-(1-(1-Methyl-1H-imidazol-2-yl)-2-(7-methyl-1H-indazol-5-yl)ethyl)-4-(2-oxo-1,2-dihydroquinazolin-3(4H)-yl)piperidine-1-carboxamide], the concentration for half-maximal inhibition (IC50) is < 10 nM.

The record behind these values is patent US7569578B2, “Heterocyclic anti-migraine agents” (Bristol-Meyers Squibb Company, priority 2003, dated 2009).
